Drawing on patent US20250320213A1, “Nitrogen-Containing Heterocyclic Compounds” (Pfizer Inc., priority 2024, published 2025), this text covers EC50 for 19 compounds.

One may read the EC50 as the concentration that produces a half-maximal response.

SMILES strings stand for the structures.

In this experiment the target is T1, STAT6 (Homo sapiens, UniProt P42226).
T1 construct: stably transfected HaCaT keratinocyte cell line, which expresses NanoLuc luciferase reporter gene under the transcriptional control of the STAT6 responsive promoter; endogenous in cells; host or cells: HaCaT keratinocyte reporter cell line (stably transfected with a NanoLuc reporter)
T1 sequence (P42226 1-847): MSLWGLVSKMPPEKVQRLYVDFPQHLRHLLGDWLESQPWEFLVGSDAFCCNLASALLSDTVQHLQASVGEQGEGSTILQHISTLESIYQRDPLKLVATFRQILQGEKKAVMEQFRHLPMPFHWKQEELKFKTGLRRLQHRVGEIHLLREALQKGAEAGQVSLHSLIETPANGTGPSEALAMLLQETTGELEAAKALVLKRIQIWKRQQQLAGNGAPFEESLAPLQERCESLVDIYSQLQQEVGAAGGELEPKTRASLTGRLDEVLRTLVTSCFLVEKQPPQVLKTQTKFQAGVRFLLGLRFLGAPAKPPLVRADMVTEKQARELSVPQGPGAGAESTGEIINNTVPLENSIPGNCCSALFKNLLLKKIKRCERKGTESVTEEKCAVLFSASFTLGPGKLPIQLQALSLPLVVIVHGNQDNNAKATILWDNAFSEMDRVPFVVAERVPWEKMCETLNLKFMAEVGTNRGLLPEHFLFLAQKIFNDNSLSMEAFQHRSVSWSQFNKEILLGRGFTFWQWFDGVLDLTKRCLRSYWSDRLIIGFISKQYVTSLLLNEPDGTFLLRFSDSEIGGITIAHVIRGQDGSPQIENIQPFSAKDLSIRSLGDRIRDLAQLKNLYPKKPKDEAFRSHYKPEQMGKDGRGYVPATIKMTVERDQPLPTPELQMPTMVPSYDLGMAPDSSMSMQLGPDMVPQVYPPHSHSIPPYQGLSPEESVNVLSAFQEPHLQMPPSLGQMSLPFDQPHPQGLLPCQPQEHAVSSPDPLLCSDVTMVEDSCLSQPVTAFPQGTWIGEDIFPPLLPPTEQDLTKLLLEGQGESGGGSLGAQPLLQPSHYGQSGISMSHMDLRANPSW
The experiment is described as follows: STAT6 Reporter Luciferase Assay (IL-13 stimulated HaCaT keratinocyte NanoLuc reporter cells). Format: cell-based. As to conditions: IL-13 stimulated HaCaT STAT6 NanoLuc reporter cells; read-out: Reporter EC50. In short, it runs like this:
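Stably transfected HaCaT cells carrying NanoLuc under the STAT6-responsive IL-13Ra2 promoter were pre-treated with compound (11-point, 4-fold series, duplicate) for 2 h at 37 °C, then stimulated with 0.12 nM IL-13 for 4 h. Nano-Glo luminescence was read after 15 min.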
On to `CC(C)n1nc(C(=O)NCc2ccc(NC(=O)N(C)C)cc2)c2c1CCN(c1ccc(C(=O)N3CC4(CC(=O)N(C)C4)C3)cn1)C2` [Example 300, N-(4-(3,3-dimethylureido)benzyl)-1-isopropyl-5-(5-(6-methyl-7-oxo-2,6-diazaspiro[3.4]octane-2-carbonyl)pyridin-2-yl)-4,5,6,7-tetrahydro-1H-pyrazolo[4,3-c]pyridine-3-carboxamide], for which the EC50 is 1420 nM. Under `[2H]C([2H])([2H])N(C(=O)Nc1ccc(CNC(=O)c2nn(C(C)C)c3c2CN(c2ccc(C(=O)N(C)C)cc2)C[C@@H]3C)cc1)C([2H])([2H])[2H]` [Example 315, (S)-N-(4-(3,3-bis(methyl-d3)ureido)benzyl)-5-(4-(dimethylcarbamoyl)phenyl)-1-isopropyl-7-methyl-4,5,6,7-tetrahydro-1H-pyrazolo[4,3-c]pyridine-3-carboxamide] stands 2 nM; under `CC(C)n1nc(C(=O)NCc2ccc(NC(=O)N(C)C)cc2)c2c1CCN(c1ccc(C(=O)N3CC(=O)N[C@H](C)C3)cn1)C2` [Example 325, (R)-N-(4-(3,3-dimethylureido)benzyl)-1-isopropyl-5-(5-(3-methyl-5-oxopiperazine-1-carbonyl)pyridin-2-yl)-4,5,6,7-tetrahydro-1H-pyrazolo[4,3-c]pyridine-3-carboxamide], 710 nM; under `CC(C)n1nc(C(=O)NCc2ccc(NC(=O)N(C)C)cc2)c2c1CCN(c1ccc(C(=O)N3CC4(CCO4)C3)cn1)C2` [Example 326, 5-(5-(1-oxa-6-azaspiro[3.3]heptane-6-carbonyl)pyridin-2-yl)-N-(4-(3,3-dimethylureido)benzyl)-1-isopropyl-4,5,6,7-tetrahydro-1H-pyrazolo[4,3-c]pyridine-3-carboxamide], 1280 nM.

As to `CC(C)n1nc(C(=O)NCc2ccc(NC(=O)N(C)C)cc2)c2c1CCN(c1ccc(C(=O)N3CC4(CNC(=O)C4)C3)cn1)C2` [Example 327, N-(4-(3,3-dimethylureido)benzyl)-1-isopropyl-5-(5-(7-oxo-2,6-diazaspiro[3.4]octane-2-carbonyl)pyridin-2-yl)-4,5,6,7-tetrahydro-1H-pyrazolo[4,3-c]pyridine-3-carboxamide], the concentration giving a half-maximal response (EC50) was found to be 3200 nM. Under `CC(C)n1nc(C(=O)NCc2ccc(NC(=O)N(C)C)cc2)c2c1CCN(c1ccc(C(=O)N3CC(=O)NCC3(C)C)cn1)C2` [Example 328, 5-(5-(2,2-dimethyl-5-oxopiperazine-1-carbonyl)pyridin-2-yl)-N-(4-(3,3-dimethylureido)benzyl)-1-isopropyl-4,5,6,7-tetrahydro-1H-pyrazolo[4,3-c]pyridine-3-carboxamide] stands 266 nM; under `CC(C)n1nc(C(=O)NCc2ccc(NC(=O)N(C)C)cc2)c2c1CCN(c1ccc(C(=O)N3CCC4(CCC(=O)N4)CC3)cn1)C2` [Example 329, N-(4-(3,3-dimethylureido)benzyl)-1-isopropyl-5-(5-(2-oxo-1,8-diazaspiro[4.5]decane-8-carbonyl)pyridin-2-yl)-4,5,6,7-tetrahydro-1H-pyrazolo[4,3-c]pyridine-3-carboxamide], 1050 nM; under `CC(=O)NC1(C)CN(C(=O)c2ccc(N3CCc4c(c(C(=O)NCc5ccc(NC(=O)N(C)C)cc5)nn4C(C)C)C3)nc2)C1` [Example 330, 5-(5-(3-acetamido-3-methylazetidine-1-carbonyl)pyridin-2-yl)-N-(4-(3,3-dimethylureido)benzyl)-1-isopropyl-4,5,6,7-tetrahydro-1H-pyrazolo[4,3-c]pyridine-3-carboxamide], 1980 nM. With `CC(C)n1nc(C(=O)NCc2ccc(NC(=O)N(C)C)cc2)c2c1CCN(c1ccc(C(=O)N(C)CCO)cn1)C2` [Example 332, N-(4-(3,3-dimethylureido)benzyl)-5-(5-((2-hydroxyethyl)(methyl)carbamoyl)pyridin-2-yl)-1-isopropyl-4,5,6,7-tetrahydro-1H-pyrazolo[4,3-c]pyridine-3-carboxamide] the figure was 160 nM; with `CC(C)n1nc(C(=O)NCc2ccc(NC(=O)N(C)C)cc2)c2c1CCN(c1ccc(C(=O)N3Cc4cnn(C)c4C3)cn1)C2` [Example 363, N-(4-(3,3-dimethylureido)benzyl)-1-isopropyl-5-(5-(1-methyl-1,4,5,6-tetrahydropyrrolo[3,4-c]pyrazole-5-carbonyl)pyridin-2-yl)-4,5,6,7-tetrahydro-1H-pyrazolo[4,3-c]pyridine-3-carboxamide], 7 nM; with `CC(C)n1nc(C(=O)NCc2ccc(NC(=O)N(C)C)cc2)c2c1CCN(c1ccc(C(=O)N3CCc4nn(C)cc4C3)cn1)C2` [Example 364, N-(4-(3,3-dimethylureido)benzyl)-1-isopropyl-5-(5-(2-methyl-4,5,6,7-tetrahydro-2H-pyrazolo[4,3-c]pyridine-5-carbonyl)pyridin-2-yl)-4,5,6,7-tetrahydro-1H-pyrazolo[4,3-c]pyridine-3-carboxamide], 20 nM. Regarding `Cc1nc2c(s1)CN(C(=O)c1ccc(N3CCc4c(c(C(=O)NCc5ccc(NC(=O)N(C)C)cc5)nn4C(C)C)C3)nc1)CC2` [Example 365, N-(4-(3,3-dimethylureido)benzyl)-1-isopropyl-5-(5-(2-methyl-4,5,6,7-tetrahydrothiazolo[5,4-c]pyridine-5-carbonyl)pyridin-2-yl)-4,5,6,7-tetrahydro-1H-pyrazolo[4,3-c]pyridine-3-carboxamide], the concentration for a half-maximal effect (EC50) worked out at 6 nM. Under `CC(C)n1nc(C(=O)NCc2ccc(NC(=O)N(C)C)cc2)c2c1CCN(c1ccc(C(=O)N3CCc4nccnc4C3)cn1)C2` [Example 366, N-(4-(3,3-dimethylureido)benzyl)-1-isopropyl-5-(5-(5,6,7,8-tetrahydropyrido[3,4-b]pyrazine-6-carbonyl)pyridin-2-yl)-4,5,6,7-tetrahydro-1H-pyrazolo[4,3-c]pyridine-3-carboxamide] stands 29 nM; under `CC(C)n1nc(C(=O)NCc2ccc(NC(=O)N(C)C)cc2)c2c1CCN(c1ccc(C(=O)N3CCn4ncnc4C3)cn1)C2` [Example 367, N-(4-(3,3-dimethylureido)benzyl)-1-isopropyl-5-(5-(5,6,7,8-tetrahydro-[1,2,4]triazolo[1,5-a]pyrazine-7-carbonyl)pyridin-2-yl)-4,5,6,7-tetrahydro-1H-pyrazolo[4,3-c]pyridine-3-carboxamide], 72 nM. For `Cc1cc(C)c2c(n1)CN(C(=O)c1ccc(N3CCc4c(c(C(=O)NCc5ccc(NC(=O)N(C)C)cc5)nn4C(C)C)C3)nc1)C2` [Example 368, 5-(5-(2,4-dimethyl-6,7-dihydro-5H-pyrrolo[3,4-b]pyridine-6-carbonyl)pyridin-2-yl)-N-(4-(3,3-dimethylureido)benzyl)-1-isopropyl-4,5,6,7-tetrahydro-1H-pyrazolo[4,3-c]pyridine-3-carboxamide], the EC50 was 5 nM. With `Cc1nn(C)c2c1CN(C(=O)c1ccc(N3CCc4c(c(C(=O)NCc5ccc(NC(=O)N(C)C)cc5)nn4C(C)C)C3)nc1)CC2` [Example 369, 5-(5-(1,3-dimethyl-4,5,6,7-tetrahydro-1H-pyrazolo[4,3-c]pyridine-5-carbonyl)pyridin-2-yl)-N-(4-(3,3-dimethylureido)benzyl)-1-isopropyl-4,5,6,7-tetrahydro-1H-pyrazolo[4,3-c]pyridine-3-carboxamide], the concentration for a half-maximal effect (EC50) was found to be 38 nM.

`CC(C)n1nc(C(=O)NCc2ccc(NC(=O)N(C)C)cc2)c2c1CCN(c1ccc(C(=O)N3Cc4cnc(C5CC5)nc4C3)cn1)C2` [Example 370, 5-(5-(2-cyclopropyl-6,7-dihydro-5H-pyrrolo[3,4-d]pyrimidine-6-carbonyl)pyridin-2-yl)-N-(4-(3,3-dimethylureido)benzyl)-1-isopropyl-4,5,6,7-tetrahydro-1H-pyrazolo[4,3-c]pyridine-3-carboxamide]: the EC50 was 11 nM. With `CC(C)n1nc(C(=O)NCc2ccc(NC(=O)N(C)C)cc2)c2c1CCN(c1ccc(C(=O)N3CCc4cnn(C)c4C3)cn1)C2` [Example 371, N-(4-(3,3-dimethylureido)benzyl)-1-isopropyl-5-(5-(1-methyl-4,5,6,7-tetrahydro-1H-pyrazolo[3,4-c]pyridine-6-carbonyl)pyridin-2-yl)-4,5,6,7-tetrahydro-1H-pyrazolo[4,3-c]pyridine-3-carboxamide] the figure was 50 nM; with `CC(C)n1nc(C(=O)NCc2ccc(NC(=O)N(C)C)cc2)c2c1CCN(c1ccc(C(=O)N3CCn4ccnc4C3)cn1)C2` [Example 372, N-(4-(3,3-dimethylureido)benzyl)-1-isopropyl-5-(5-(5,6,7,8-tetrahydroimidazo[1,2-a]pyrazine-7-carbonyl)pyridin-2-yl)-4,5,6,7-tetrahydro-1H-pyrazolo[4,3-c]pyridine-3-carboxamide], 59 nM.
